Test results as given in patent US7834019B2, “Substituted pyrazolo[3,4-d]pyrimidinone derivatives” (Banyu Pharmaceutical Co., Ltd., priority 2006, dated 2010).

Experiments:
Weel kinase = molecular target: T1, Weel kinase (Homo sapiens, UniProt P30291); assay: Weel kinase-inhibitory effect (33P-ATP filter assay with purified GST-tagged Weel kinase); format: biochemical; settings: Poly(Lys,Tyr) substrate, 10 μM ATP, 30° C. for 30 minutes
T1 construct: made in house; host or cells: Sf9 insect cells (recombinant baculovirus)
Description: Pharmaceutical Test 1 (Weel Kinase-Inhibitory Effect)
(1) Purification of Weel Kinase:
A cDNA of Weel kinase with […] (GST) fused at the amino terminal thereof was inserted into a baculovirus expression vector to construct a recombinant baculovirus, with which cells of an insect cell line Sf9 were infected for high expression therein. The infected cells were recovered and solubilized, and then the GST-tagged Weel kinase protein was adsorbed by a glutathione column, and eluted from the column with glutathione, and the active fraction was desalted in a desalting column to give a purified enzyme.
(2) Determination of Weel Kinase Activity:
In determination of the Weel kinase activity, a synthetic peptide, Poly(Lys,Tyr) Hydrobromide (Lys:Tyr (4:1)) bought from Sigma was used as the substrate.
The amount of the reaction mixture was 21.1 μL; and the composition of the reaction buffer was 50 mM Tris-HCl buffer (pH 7.4)/10 mM magnesium chloride/1 mM dithiothreitol. The purified Weel kinase, 2.5 μg of the substrate peptide, 10 μM of non-labeled adenosine triphosphate (ATP) and 1 μCi of [γ-^33P]-labeled ATP (2500 Ci/mmol or more) were added to it, and incubated at 30° C. for 30 minutes. Next, 10 μL of 350 mM phosphate buffer was added to the reaction mixture to stop the reaction. The substrate peptide was adsorbed by a P81 paper filter 96-well plate, then washed a few times with 130 mM phosphate buffer, and its radioactivity was counted with a liquid scintillation counter. The [γ-^33P]-labeled ATP was bought from Amersham Bioscience.
To add the test compound to the reaction system, the compound was diluted with dimethylsulfoxide (DMSO) to prepare a series of dilutions. 1.1 μL of each dilution was added to the reaction system. As a control, 1.1 μL of DMSO was added to the reaction system.

[1] = system: Human colon cancer cells WiDr; assay: Tumor growth-inhibitory effect, WiDr tumor implanted subcutaneously in nude rats; format: in vivo, F344/N Jcl-mu nude rats; settings: gemcitabine 50 mg/kg intravenously alone
Experimental: Pharmaceutical Test 4 (Tumor Growth-Inhibitory Effect)
Human colon cancer cells WiDr (gotten from ATCC) were implanted into the subcutaneous area of the back of F344/N Jcl-mu nude rats. Eight days after the implantation, gemcitabine (50 mg/kg, Gemzar injection, Eli-Lilly) was intravenously administered to them; and after 24 hours, a test compound was dissolved in a solvent (5% glucose) and given to them through continuous intravenous injection for 8 hours. The tumor volume (0.5×(major diameter)×(minor diameter)^2) was determined on day 0, 3, 6, 10 and 13. Day 0 means the day on which gemcitabine was administered. The relative tumor volume is a relative value, as calculated on the basis of the tumor volume of 1 on day 0. The tumor growth percentage (% T/C) was obtained according to the following formula:
When the tumor volume change from day 0 in the group subjected to test compound administration is more than 0 (>0): % T/C=[(tumor volume change in the test compounds on day 3, 6, 10, 13)/(tumor volume change in the control on day 3, 6, 10, 13)]×100. When the tumor volume change from day 0 in the group subjected to test compound administration is less than 0 (<0): % T/C=[(tumor volume change in the test compounds on day 3, 6, 10, 13)/(tumor volume […])]×100.

T1 sequence (P30291 whole entry): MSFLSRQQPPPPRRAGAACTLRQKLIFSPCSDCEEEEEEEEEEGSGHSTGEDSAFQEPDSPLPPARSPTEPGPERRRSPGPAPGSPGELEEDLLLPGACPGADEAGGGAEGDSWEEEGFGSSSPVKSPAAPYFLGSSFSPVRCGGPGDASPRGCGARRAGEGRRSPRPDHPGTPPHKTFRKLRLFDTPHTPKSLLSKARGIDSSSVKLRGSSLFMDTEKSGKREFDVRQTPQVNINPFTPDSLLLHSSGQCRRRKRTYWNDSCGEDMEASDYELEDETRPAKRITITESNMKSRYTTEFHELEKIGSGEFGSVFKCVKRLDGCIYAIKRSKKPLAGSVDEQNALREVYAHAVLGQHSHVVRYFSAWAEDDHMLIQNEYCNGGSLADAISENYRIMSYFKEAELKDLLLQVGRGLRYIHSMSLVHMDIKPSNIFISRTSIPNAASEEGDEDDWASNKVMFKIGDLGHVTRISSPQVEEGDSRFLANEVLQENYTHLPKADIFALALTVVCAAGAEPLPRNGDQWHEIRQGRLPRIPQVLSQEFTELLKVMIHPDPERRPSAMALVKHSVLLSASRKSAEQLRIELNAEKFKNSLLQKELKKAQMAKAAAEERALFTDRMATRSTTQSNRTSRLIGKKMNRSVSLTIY

| Compound | IC50 (Weel kinase) [nM] | also measured |
| --- | --- | --- |
| C=CCn1c(=O)c2cnc(Nc3ccc(N4CCN(C)CC4)cc3)nc2n1-c1cccc(CN(C)C)c1 [Example 26, 2-allyl-1-[3-(dimethylaminomethyl)phenyl]-6-{[4-(4-methylpiperazin-1-yl)phenyl]amino}-1,2-dihydro-3H-pyrazolo[3,4-d]pyrimidin-3-one] | 18 | – |
| C=CCn1c(=O)c2cnc(Nc3ccc(N4CCN(C)CC4)c(CO)c3)nc2n1-c1ccccn1 [Example 29, 2-allyl-6-{[3-hydroxymethyl-4-(4-methylpiperazin-1-yl)phenyl]amino}-1-pyridin-2-yl-1,2-dihydro-3H-pyrazolo[3,4-d]pyrimidin-3-one] | 20 | – |
| C=CCn1c(=O)c2cnc(Nc3ccc(N4CCN(C)CC4)c(C)c3)nc2n1-c1cccc(CN(C)C)n1 [Example 52, 2-allyl-1-[6-[(dimethylamino)methyl]pyridin-2-yl]-6-{[3-methyl-4-(4-methylpiperazin-1-yl)phenyl]amino}-1,2-dihydro-3H-pyrazolo[3,4-d]pyrimidin-3-one] | 12 | – |
| C=CCn1c(=O)c2cnc(Nc3ccc(N4CCN(C)CC4)c(C)c3)nc2n1-c1cccc(OCCO)n1 [Example 98, 2-allyl-1-[6-(2-hydroxyethoxy)pyridin-2-yl]-6-{[3-methyl-4-(4-methylpiperazin-1-yl)phenyl]amino}-1,2-dihydro-3H-pyrazolo[3,4-d]pyrimidin-3-one] | 14 | – |
| Cc1cc(Nc2ncc3c(=O)n(Cc4ccccc4)n(-c4ccccc4)c3n2)ccc1N1CCN(C)CC1 [Example 111, 2-benzyl-6-{[3-methyl-4-(4-methylpiperazin-1-yl)phenyl]amino}-1-phenyl-1,2-dihydro-3H-pyrazolo[3,4-d]pyrimidin-3-one] | 24 | – |
| CC(C)n1c(=O)c2cnc(Nc3ccc(C4CCN(C)CC4)cc3)nc2n1-c1cccc(C(C)(C)O)n1 [Example 147, 1-[6-(1-hydroxy-1-methylethyl)pyridin-2-yl]-2-isopropyl-6-{[4-(1-methylpiperidin-4-yl)phenyl]amino}-1,2-dihydro-3H-pyrazolo[3,4-d]pyrimidin-3-one] | 24 | – |
| C=CCn1c(=O)c2cnc(Nc3ccc(N4CCN(C)CC4)cc3)nc2n1-c1cccc(N2CCN(C)C2=O)n1 [Example 148, 2-allyl-1-[6-(3-methyl-2-oxoimidazolidin-1-yl)pyridin-2-yl]-6-{[4-(4-methylpiperazin-1-yl)phenyl]amino}-1,2-dihydro-3H-pyrazolo[3,4-d]pyrimidin-3-one] | 17 | – |
| Nc1ccn([C@@H]2O[C@H](CO)[C@@H](O)C2(F)F)c(=O)n1 [Gemcitabine, gemcitabine, reference compound] | – | % T/C day 3 ([1]; day 3): 22%; % T/C day 6 ([1]; day 6): 31%; % T/C day 10 ([1]; day 10): 54%; % T/C day 13 ([1]; day 13): 65% |

Continued by falling IC50 (Weel kinase), values first:

| IC50 (Weel kinase) [nM] | Compound | also measured |
| --- | --- | --- |
| 8.8 | C=CCn1c(=O)c2cnc(Nc3ccc(N4CCN(C)CC4)cc3)nc2n1-c1cccc(CN(C)S(C)(=O)=O)n1 [Example 99, N-{[6-(2-allyl-6-{[4-(4-methylpiperazin-1-yl)phenyl]amino}-3-oxo-1,2-dihydro-3H-pyrazolo[3,4-d]pyrimidin-1-yl)pyridin-2-yl]methyl}-N-methylmethanesulfonamide] | – |
| 7.6 | C=CCn1c(=O)c2cnc(Nc3ccc(N4CCN(C)CC4)c(CO)c3)nc2n1-c1ccsc1 [Example 3, 2-allyl-6-{[3-(hydroxymethyl)-4-(4-methylpiperazin-1-yl)phenyl]amino}-1-(3-thienyl)-1,2-dihydro-3H-pyrazolo[3,4-d]pyrimidin-3-one] | – |
| 7 | C=CCn1c(=O)c2cnc(Nc3ccc(N4CCN(C)CC4)cc3)nc2n1-c1cccc(C(=O)N(C)C)c1 [Example 1, 3-(2-allyl-6-{[4-(4-methylpiperazin-1-yl)phenyl]amino}-3-oxo-1,2-dihydro-3H-pyrazolo[3,4-d]pyrimidin-1-yl)-N,N-dimethylbenzamide] | – |
| 6.3 | C#CCn1c(=O)c2cnc(Nc3ccc(N4CCN(C)CC4)cc3)nc2n1-c1cccc(C(C)(C)O)n1 [Example 113, 1-[6-(1-hydroxy-1-methylethyl)pyridin-2-yl]-6-{[4-(4-methylpiperazin-1-yl)phenyl]amino}-2-(2-propynyl)-1,2-dihydro-3H-pyrazolo[3,4-d]pyrimidin-3-one] | – |
